Measured values published in patent US4367339A, “Substituted N-nitroaniline compounds and inorganic and organic salts thereof useful for enhancing auxiliary branching, canopy flowering and crop yield of plant and as lodging inhibitors therefor” (priority 1980, dated 1983).
Where a name gives a salt, the structure may show the parent alone.

What was measured:
[1] = system: soybean (Glycine max) Adelphia; assay: Dwarfing and stem stiffening of soybeans (plant height, greenhouse, foliar spray); format: in vivo; conditions: three weeks after spraying
Description: In the following tests, test compounds are dissolved or dispersed in acetone-water (1:1) mixtures at the final concentration corresponding to the kg/ha rates indicated in the table below. The solution also contains 0.25% v/v colloidal BIOFILM® (a product of Colloidal Products Corp.) which is a mixture of alkyl aryl polyethoxyethanol, free and combined fatty acids, glycol ethers, dialkylbenzene carboxylate and 2-propanol.
The plant species used in these tests are barley (Hordeum vulgare), (Mexico) and soybean (Glycine max)Adelphia.
The solution or dispersion of the compound under test is sprayed at a rate of 747 l/ha with a moving nozzle along an overhead stationary track. The spray nozzle moves at a constant speed over the plants.
The plants are grown in plastic pots, and are well established at the time of treatment. The seedlings of barley are 10 to 20 cm in height, while the seedlings of soybeans are at the second to third trifoliate stage. Plants are watered prior to treatment and then sprayed to provide the kg/ha rate of test compound desired. After spraying the plants are placed on greenhouse benches and watered and fertilized in accordance with normal greenhouse procedures.
Three weeks after spraying the plants are measured and harvested. Harvesting is done at the boot stage. All treatments are replicated six times and comparisons are made against untreated controls. Data obtained are reported in Table VI below as percent reduction in plant height over untreated controls.

[2] = system: soybeans (Glycine max) Adelphia variety; assay: Increasing axillary branching and improving the canopy of broad leaf plants (soybeans); format: in vivo, soybean (Glycine max); conditions: three weeks after treatment
Description: In these tests seedling soybean plants approximately three weeks old, and grown in plastic pots to the 2nd to 3rd trifoliate stage, are sprayed with solutions or dispersions of test compound prepared as described in Example 7 above. The same spraying apparatus, described in Example 7 above, is used and after spraying the plants are placed on greenhouse benches and watered and fertilized. Three weeks after treatment the plants are examined to determine what effect the application of test compound has had on the axillary branching and canopy development of the treated plants.
Increased axillary branching and improved canopy are biological responses which are highly advantageous in the growing of ornamental plants. These responses also have advantage in many crops since increased branching may result in the greater production of fruit, while improved canopy tends to shade and suppress the growth of undesirable weeds that compete with the crops for sunlight, water and plant nutrients. Data obtained are reported in table VII below where axillary branching and canopy are reported as percent increase over untreated controls.

[3] = system: barley (Hordeum vulgare, var. Georgie); assay: Antilodging effects on barley; format: in vivo; set-up: key to Tiller formation / Stem stiffness: 5 = no increase over controls, 3 = moderate significant increase; conditions: for Stem stiffness / Tiller formation: control 5; for Weight Dry: control 5.2; for Weight Fresh: control 49.1; for Height: control 53.1; for Phytotoxicity: three weeks after spraying
Description: In this experiment the procedure of Example 7 is repeated excepting that the crop used was barley (Hordeum vulgare, var. Georgie; European lodging prone variety). The plants are treated at the 3-4 leaf stage. Plants are watered prior to treatment and then sprayed to provide the kg/ha rate of test compound desired. After spraying the plants are placed on greenhouse benches and watered and fertilized in accordance with normal greenhouse procedures.
Three weeks after spraying the plants are measured and harvested. All treatments are replicated six times and companions are made against untreated controls.
The following rating system is used:
5=No increase over controls
3=Moderate, significant increase over controls.

“1,2-Dimethyl-3,5-diphenylpyrazolium salt with 2,6-dibromo-α,α,α-trifluoro-N--aci-nitro-o-toluidine” was tested, and the “% Reduction in Plant Height over untreated controls” value (“% Reduction in Plant Height” below) ([1]; rate 0.125 kg/ha) was greater than 10%, the “% Reduction in Plant Height” value ([1]; rate 0.25 kg/ha) was greater than 15% and the “% Reduction in Plant Height” value ([1]; rate 0.5 kg/ha) was greater than 20%.
For “3-(p-Fluorophenyl)-1,2-dimethyl-3,5-diphenylpyrazolium salt with 2,4,6-tribromo-N--aci-nitroaniline”, the “% Increase in Plant Canopy over untreated controls” value (“% Increase in Plant Canopy” below) ([2]; rate 0.125 kg/ha) was “normal”, the “% Increase in axillary branching over untreated controls” value (from here on “% Increase in axillary branching”) ([2]; rate 0.125 kg/ha) was “normal” and the “% Increase in axillary branching” value ([2]; rate 0.5 kg/ha) was “normal”.
With Cc1cc(C)c([N-][N+](=O)[O-])c(C)c1.Cn1c(-c2ccccc2)cc(-c2ccccc2)[n+]1C [1,2-Dimethyl-3,5-diphenylpyrazolium salt with 2,4,6-Trimethyl-N--aci-nitroaniline] the “% Reduction in Plant Height” value ([1]; rate 0.125 kg/ha) was “slight increase”, the “% Reduction in Plant Height” value ([1]; rate 0.25 kg/ha) was greater than 5% and the “% Reduction in Plant Height” value ([1]; rate 0.5 kg/ha) was greater than 10%. For the same compound, the “% Increase in Plant Canopy” value ([2]; rate 0.125 kg/ha) was “normal” and the “% Increase in axillary branching” value ([2]; rate 0.125 kg/ha) was “normal”.
For Cn1c(-c2ccccc2)cc(-c2ccccc2)[n+]1C.O=[N+]([O-])[N-]c1c(Cl)cc(Cl)cc1Cl [1,2-Dimethyl-3,5-diphenylpyrazolium salt with 2,4,6-trichloro-N--aci-nitroaniline], the “% Reduction in Plant Height” value ([1]; rate 0.125 kg/ha) was greater than 10%, the “% Reduction in Plant Height” value ([1]; rate 0.25 kg/ha) was greater than 15% and the “% Reduction in Plant Height” value ([1]; rate 0.5 kg/ha) was greater than 25%.
For Cn1c(-c2ccccc2)cc(-c2ccccc2)[n+]1C.O=[N+]([O-])[N-]c1c(Br)cc(Cl)cc1Br [1,2-Dimethyl-3,5-diphenylpyrazolium salt with 2,6-dibromo-4-chloro-N--aci-nitroaniline], the “% Reduction in Plant Height” value ([1]; rate 0.125 kg/ha) was greater than 25%, the “% Reduction in Plant Height” value ([1]; rate 0.25 kg/ha) was greater than 30% and the “% Reduction in Plant Height” value ([1]; rate 0.5 kg/ha) was greater than 40%. The “% Increase in Plant Canopy” value ([2]; rate 0.125 kg/ha) was “normal”.
With O=[N+]([O-])Nc1c(Br)cc(Br)cc1Br [1-Hexadecylpyridinium salt with 2,4,6-tribromo-N-- aci-nitro] [1-Hexadecylpyridinium salt with 2,4,6-tribromo-N-- aci-nitroaniline] the “% Reduction in Plant Height” value ([1]; rate 0.125 kg/ha) was greater than 35%, the “% Reduction in Plant Height” value ([1]; rate 0.25 kg/ha) was greater than 35% and the “% Reduction in Plant Height” value ([1]; rate 0.5 kg/ha) was greater than 50%.
For O=[N+]([O-])Nc1c(Br)cc(Br)cc1Br [1-Hexadecylpyridinium salt with 2,4,6-tribromo-N--aci-nitroa], the “% Increase in Plant Canopy” value ([2]; rate 0.125 kg/ha) was “normal”, the “% Increase in axillary branching” value ([2]; rate 0.125 kg/ha) was “normal” and the “% Increase in axillary branching” value ([2]; rate 0.25 kg/ha) was “normal”. The “% Increase in axillary branching” value ([2]; rate 0.5 kg/ha) was “normal”.
With O=[N+]([O-])Nc1c(Br)cc(Br)cc1Br [2,4,6-Tribromo-N--nitroaniline, Calcium salt] the “% Increase in Plant Canopy” value ([2]; rate 0.25 kg/ha, listed as 2,4,6-Tribromo-N--aci-nitroaniline calcium salt (2:1), Calcium salt) was “slight reduction” and the “% Increase in Plant Canopy” value ([2]; rate 0.5 kg/ha, listed as 2,4,6-Tribromo-N--aci-nitroaniline calcium salt (2:1), Calcium salt) was “moderate reduction”.
With O=[N+]([O-])Nc1c(Br)cc(Br)cc1Br [2,4,6-Tribromo-N--nitroaniline, diisopropylamine (1:1)salt] the “% Increase in Plant Canopy” value ([2]; rate 0.5 kg/ha) was “slight reduction”.
O=[N+]([O-])Nc1c(Br)cc(Br)cc1Br [2,4,6-Tribromo-N--nitroaniline, magnesium salt] was tested, and the “% Increase in Plant Canopy” value ([2]; rate 0.25 kg/ha, listed as 2,4,6-Tribromo-N--aci-nitroaniline, magnesium salt (2:1)) was “moderate reduction” and the “% Increase in Plant Canopy” value ([2]; rate 0.5 kg/ha, listed as 2,4,6-Tribromo-N--aci-nitroaniline, magnesium salt (2:1)) was “moderate reduction”.
O=[N+]([O-])Nc1c(Br)cc(Br)cc1Br [2,4,6-Tribromo-N--nitroaniline, triethylamine (1:1)salt] was tested, and the “% Increase in axillary branching” value ([2]; rate 0.125 kg/ha) was “normal”, the “% Increase in Plant Canopy” value ([2]; rate 0.25 kg/ha) was “slight reduction” and the “% Increase in Plant Canopy” value ([2]; rate 0.5 kg/ha) was “slight reduction”.
In the case of Cn1c(-c2ccccc2)cc(C2CCCCC2)[n+]1C.O=[N+]([O-])[N-]c1c(Br)cc(Br)cc1Br [3-Cyclohexyl-1,2-dimethyl-5-phenylpyrazolium salt with 2,4,6-tribromo-N--aci-nitroaniline], the “% Reduction in Plant Height” value ([1]; rate 0.125 kg/ha) is reported as greater than 10%, the “% Reduction in Plant Height” value ([1]; rate 0.25 kg/ha) is reported as greater than 20% and the “% Reduction in Plant Height” value ([1]; rate 0.5 kg/ha) is reported as greater than 40%. For the same compound, the “% Increase in Plant Canopy” value ([2]; rate 0.5 kg/ha) was “slight reduction”.
With O=[N+]([O-])Nc1c(Br)cc(Br)cc1Br [Benzyltriethylammonium salt with 2,4,6-tribromo-N--aci-nitro] [Benzyltriethylammonium salt with 2,4,6-tribromo-N--aci-nitroaniline] the “% Reduction in Plant Height” value ([1]; rate 0.125 kg/ha) was greater than 25%, the “% Reduction in Plant Height” value ([1]; rate 0.25 kg/ha) was greater than 35% and the “% Reduction in Plant Height” value ([1]; rate 0.5 kg/ha) was greater than 50%. The “% Increase in Plant Canopy” value ([2]; rate 0.125 kg/ha) was “normal”, the “% Increase in axillary branching” value ([2]; rate 0.125 kg/ha) was “normal” and the “% Increase in axillary branching” value ([2]; rate 0.25 kg/ha) was “normal”.
In the case of O=[N+]([O-])Nc1c(Br)cc(Br)cc1Br [Dibenzylamine(1:1)with 2,4,6-tribromo-N--nitroaniline], the “% Reduction in Plant Height” value ([1]; rate 0.125 kg/ha) is reported as greater than 25%, the “% Reduction in Plant Height” value ([1]; rate 0.25 kg/ha) is reported as greater than 35% and the “% Reduction in Plant Height” value ([1]; rate 0.5 kg/ha) is reported as greater than 50%.
O=[N+]([O-])Nc1c(Br)cc(Br)cc1Br [Dodecylamine with 2,4,6-tribromo-N--nitroaniline] was tested, and the “% Reduction in Plant Height” value ([1]; rate 0.125 kg/ha) was greater than 15%, the “% Reduction in Plant Height” value ([1]; rate 0.25 kg/ha) was greater than 25% and the “% Reduction in Plant Height” value ([1]; rate 0.5 kg/ha) was greater than 35%.
O=[N+]([O-])Nc1c(Br)cccc1Br [Tallowamine compound with 2,6-dibromo-N--nitroaniline] was tested, and the Stem stiffness ([3]; rate 0.25 kg/ha) was 4, the Tiller formation ([3]; rate 0.25 kg/ha) was 5 (No increase over controls) and the “Weight Dry” value ([3]; rate 0.25 kg/ha) was 6.8 g. The “Weight Fresh” value ([3]; rate 0.25 kg/ha) was 62.3 g, the Height ([3]; rate 0.25 kg/ha) was 54.7 cm and the Phytotoxicity ([3]; rate 0.25 kg/ha) was 5 (No increase over controls). For the same compound, the Stem stiffness ([3]; rate 0.5 kg/ha) was 4, the Tiller formation ([3]; rate 0.5 kg/ha) was 4 and the “Weight Dry” value ([3]; rate 0.5 kg/ha) was 7.5 g. For the same compound, the “Weight Fresh” value ([3]; rate 0.5 kg/ha) was 60.1 g, the Height ([3]; rate 0.5 kg/ha) was 48.5 cm and the Phytotoxicity ([3]; rate 0.5 kg/ha) was 5 (No increase over controls). For the same compound, the Stem stiffness ([3]; rate 1.0 kg/ha) was 4, the Tiller formation ([3]; rate 1.0 kg/ha) was 4 and the “Weight Fresh” value ([3]; rate 1.0 kg/ha) was 55.9 g. The Height ([3]; rate 1.0 kg/ha) was 48.7 cm and the Phytotoxicity ([3]; rate 1.0 kg/ha) was 5 (No increase over controls).
CCc1cccc(C(C)C)c1N[N+](=O)[O-] [Tallowamine compound with 2-ethyl-6-isopropyl-N--nitroanilin] [Tallowamine compound with 2-ethyl-6-isopropyl-N--nitroaniline] was tested, and the Stem stiffness ([3]; rate 0.25 kg/ha) was 4, the Tiller formation ([3]; rate 0.25 kg/ha) was 4 and the “Weight Fresh” value ([3]; rate 0.25 kg/ha) was 49.2 g. For the same compound, the Height ([3]; rate 0.25 kg/ha) was 45.0 cm, the Phytotoxicity ([3]; rate 0.25 kg/ha) was 5 (No increase over controls) and the Stem stiffness ([3]; rate 0.5 kg/ha) was 4. For the same compound, the Tiller formation ([3]; rate 0.5 kg/ha) was 4, the “Weight Fresh” value ([3]; rate 0.5 kg/ha) was 47.1 g and the Height ([3]; rate 0.5 kg/ha) was 41.7 cm. For the same compound, the Phytotoxicity ([3]; rate 0.5 kg/ha) was 5 (No increase over controls), the Stem stiffness ([3]; rate 1.0 kg/ha) was 4 and the Tiller formation ([3]; rate 1.0 kg/ha) was 4. For the same compound, the “Weight Fresh” value ([3]; rate 1.0 kg/ha) was 52.4 g, the Height ([3]; rate 1.0 kg/ha) was 45.7 cm and the Phytotoxicity ([3]; rate 1.0 kg/ha) was 5 (No increase over controls).
In the case of CCCC[P+](CCCC)(CCCC)Cc1ccc(Cl)cc1Cl.O=[N+]([O-])[N-]c1c(Br)cc(Br)cc1Br [Tributyl(2,4-dichlorobenzyl) phosphonium salt with 2,4,6-tribromo-N--aci-nitroaniline], the “% Increase in Plant Canopy” value ([2]; rate 0.125 kg/ha) is reported as “normal”, the “% Increase in axillary branching” value ([2]; rate 0.125 kg/ha) is reported as “normal” and the “% Increase in Plant Canopy” value ([2]; rate 0.5 kg/ha) is reported as “moderate reduction”.
With “Tributyl(2,4-dichlorobenzyl)phosphonium salt with aniline” the “% Reduction in Plant Height” value ([1]; rate 0.125 kg/ha) was greater than 8%, the “% Reduction in Plant Height” value ([1]; rate 0.25 kg/ha) was greater than 25% and the “% Reduction in Plant Height” value ([1]; rate 0.5 kg/ha) was greater than 50%.
